Measured values reported in patent publication US10131652B2, “Pyrimidinyloxy benzene derivatives as herbicides” (E. I. DU PONT DE NEMOURS AND COMPANY, priority 2014, dated 2018).

Tests used:
Assay in all cases: Test D pre-/postemergence plant response
Format in all cases: in vivo
[1] = tested on: ragweed (common ragweed, Ambrosia elatior); settings: Postemergence
Procedure, shortened: (§1)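 Sown seed (loam/sand soil) treated preemergence; emerged plants, 1- to 4-leaf stage and 2 to 18 cm, treated postemergence in peat/vermiculite medium. Greenhouse incubation 13–15 d. Endpoint: visual 0–100 rating versus untreated.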

[2] = tested on: pigweed (Amaranthus retroflexus); settings: Postemergence
Procedure, shortened: as §1

[3] = tested on: velvetleaf (Abutilon theophrasti); settings: Postemergence
Procedure, shortened: as §1

[4] = tested on: barnyardgrass (Echinochloa crus-galli); settings: Postemergence; for Barnyardgrass plant response rating: scale 0 to 100 (0 no effect, 100 complete control); for Plant response rating, Barnyardgrass: scale 0 to 100, 0 no effect, 100 complete control
Procedure, shortened: as §1

[5] = tested on: galium (catchweed bedstraw, Galium aparine); settings: Postemergence; for Galium plant response rating: 31 g ai/ha, scale 0 to 100 (0 no effect, 100 complete control); for Plant response rating, Galium: scale 0 to 100, 0 no effect, 100 complete control
Procedure, shortened: as §1

[6] = tested on: blackgrass (Alopecurus myosuroides); settings: Postemergence; for Blackgrass plant response rating: scale 0 to 100 (0 no effect, 100 complete control); for Plant response rating, Blackgrass: scale 0 to 100, 0 no effect, 100 complete control
Procedure, shortened: as §1

[7] = tested on: giant foxtail (Setaria faberii); settings: Postemergence; for Foxtail, Giant plant response rating: scale 0 to 100 (0 no effect, 100 complete control); for Plant response rating, Foxtail, Giant: scale 0 to 100, 0 no effect, 100 complete control
Procedure, shortened: as §1

[8] = tested on: winter wheat (Triticum aestivum); settings: Postemergence
Procedure, shortened: as §1

[9] = tested on: morningglory (Ipomoea coccinea); settings: Postemergence
Procedure, shortened: as §1

soybean (Glycine max) = settings: Postemergence
Procedure, shortened: as §1

[10] = tested on: large (Lg) crabgrass (Digitaria sanguinalis); settings: Postemergence; for Crabgrass, Large plant response rating: scale 0 to 100 (0 no effect, 100 complete control); for Plant response rating, Crabgrass, Large: scale 0 to 100, 0 no effect, 100 complete control
Procedure, shortened: as §1

corn (Zea mays) = settings: Postemergence; for Corn plant response rating: scale 0 to 100 (0 no effect, 100 complete control); for Plant response rating, Corn: scale 0 to 100, 0 no effect, 100 complete control
Procedure, shortened: as §1

[11] = tested on: oilseed rape (Brassica napus); settings: Postemergence
Procedure, shortened: as §1

[12] = tested on: Italian ryegrass (Lolium multiflorum); settings: Postemergence
Procedure, shortened: as §1

[13] = tested on: lambsquarters (Chenopodium album); settings: Postemergence
Procedure, shortened: as §1

[14] = tested on: waterhemp (common waterhemp, Amaranthus rudis); settings: Postemergence
Procedure, shortened: as §1

[15] = tested on: yellow nutsedge (Cyperus esculentus); settings: Postemergence
Procedure, shortened: as §1

[16] = tested on: johnsongrass (Sorghum halepense); settings: Postemergence; for Johnsongrass plant response rating: 31 g ai/ha, scale 0 to 100 (0 no effect, 100 complete control); for Plant response rating, Johnsongrass: scale 0 to 100, 0 no effect, 100 complete control
Procedure, shortened: as §1

[17] = 31 g ai/ha, scale 0 to 100 (0 no effect, 100 complete control)
[18] = 62 g ai/ha, scale 0 to 100, 0 no effect, 100 complete control
[19] = 125 g ai/ha, scale 0 to 100, 0 no effect, 100 complete control

Structure (SMILES): FCc1cc(-c2ccccc2Oc2ncc(Cl)cn2)on1 [Compound 224]
- Plant response rating (scale 0 to 100), Ragweed ([1]; 16 g ai/ha): 30
- Ragweed plant response rating [1, 17]: 55
- Ragweed plant response rating [1, 18]: 55
- Plant response rating, Ragweed [1, 19]: 70
- Plant response rating (scale 0 to 100), Pigweed ([2]; 16 g ai/ha): 85
- Pigweed plant response rating [2, 17]: 85
- Pigweed plant response rating [2, 18]: 85
- Plant response rating, Pigweed [2, 19]: 90
- Plant response rating (scale 0 to 100), Velvetleaf ([3]; 16 g ai/ha): 10
- Velvetleaf plant response rating [3, 17]: 25
- Velvetleaf plant response rating [3, 18]: 30
- Plant response rating, Velvetleaf [3, 19]: 60
- Plant response rating (scale 0 to 100), Barnyardgrass ([4]; 16 g ai/ha): 5
- Barnyardgrass plant response rating ([4]; 31 g ai/ha): 5
- Plant response rating, Barnyardgrass ([4]; 62 g ai/ha): 10
- Plant response rating, Barnyardgrass ([4]; 125 g ai/ha): 15
- Plant response rating (scale 0 to 100), Galium ([5]; 16 g ai/ha): 40
- Galium plant response rating [5]: 50
- Plant response rating, Galium ([5]; 62 g ai/ha): 60
- Plant response rating, Galium ([5]; 125 g ai/ha): 60
- Plant response rating (scale 0 to 100), Blackgrass ([6]; 16 g ai/ha): 0
- Blackgrass plant response rating ([6]; 31 g ai/ha): 0
- Plant response rating, Blackgrass ([6]; 62 g ai/ha): 5
- Plant response rating, Blackgrass ([6]; 125 g ai/ha): 0
- Plant response rating (scale 0 to 100), Foxtail, Giant ([7]; 16 g ai/ha): 0
- Foxtail, Giant plant response rating ([7]; 31 g ai/ha): 5
- Plant response rating, Foxtail, Giant ([7]; 62 g ai/ha): 5
- Plant response rating, Foxtail, Giant ([7]; 125 g ai/ha): 40
- Plant response rating (scale 0 to 100), Wheat ([8]; 16 g ai/ha): 0
- Wheat plant response rating [8, 17]: 0
- Wheat plant response rating [8, 18]: 0
- Plant response rating, Wheat [8, 19]: 15
- Plant response rating (scale 0 to 100), Morningglory ([9]; 16 g ai/ha): 15
- Morningglory plant response rating [9, 17]: 35
- Morningglory plant response rating [9, 18]: 35
- Plant response rating, Morningglory [9, 19]: 80
- Plant response rating (scale 0 to 100), Soybean (soybean (Glycine max); 16 g ai/ha): 35
- Soybean plant response rating (soybean (Glycine max); [17]): 40
- Soybean plant response rating (soybean (Glycine max); [18]): 65
- Plant response rating, Soybean (soybean (Glycine max); [19]): 75
- Plant response rating (scale 0 to 100), Crabgrass, Large ([10]; 16 g ai/ha): 5
- Crabgrass, Large plant response rating ([10]; 31 g ai/ha): 5
- Plant response rating, Crabgrass, Large ([10]; 62 g ai/ha): 10
- Plant response rating, Crabgrass, Large ([10]; 125 g ai/ha): 10
- Plant response rating (scale 0 to 100), Corn (corn (Zea mays); 16 g ai/ha): 0
- Corn plant response rating (corn (Zea mays); 31 g ai/ha): 5
- Plant response rating, Corn (corn (Zea mays); 62 g ai/ha): 5
- Plant response rating, Corn (corn (Zea mays); 125 g ai/ha): 5
- Plant response rating (scale 0 to 100), Oilseed Rape ([11]; 16 g ai/ha): 0
- Oilseed Rape plant response rating [11, 17]: 10
- Oilseed Rape plant response rating [11, 18]: 50
- Plant response rating, Oilseed Rape [11, 19]: 98
- Plant response rating (scale 0 to 100), Ryegrass, Italian ([12]; 16 g ai/ha): 0
- Ryegrass, Italian plant response rating [12, 17]: 0
- Ryegrass, Italian plant response rating [12, 18]: 0
- Plant response rating, Ryegrass, Italian [12, 19]: 0
- Plant response rating (scale 0 to 100), Lambsquarters ([13]; 16 g ai/ha): 55
- Lambsquarters plant response rating [13, 17]: 75
- Lambsquarters plant response rating [13, 18]: 80
- Plant response rating, Lambsquarters [13, 19]: 85
- Plant response rating (scale 0 to 100), Waterhemp ([14]; 16 g ai/ha): 70
- Waterhemp plant response rating [14, 17]: 75
- Waterhemp plant response rating [14, 18]: 85
- Plant response rating, Waterhemp [14, 19]: 85
- Plant response rating (scale 0 to 100), Nutsedge, Yellow ([15]; 16 g ai/ha): 0
- Nutsedge, Yellow plant response rating [15, 17]: 0
- Nutsedge, Yellow plant response rating [15, 18]: 5
- Plant response rating, Nutsedge, Yellow [15, 19]: 5
- Plant response rating (scale 0 to 100), Johnsongrass ([16]; 16 g ai/ha): 5
- Johnsongrass plant response rating [16]: 5
- Plant response rating, Johnsongrass ([16]; 62 g ai/ha): 5
- Plant response rating, Johnsongrass ([16]; 125 g ai/ha): 5

Structure (SMILES): FC(F)(F)c1cc(-c2c(I)cccc2Oc2ncc(Cl)cn2)no1 [Compound 156]
- Plant response rating (scale 0 to 100), Ragweed ([1]; 8 g ai/ha): 0
- Ragweed plant response rating [1, 17]: 10
- Plant response rating, Ragweed [1, 18]: 15
- Plant response rating (scale 0 to 100), Pigweed ([2]; 8 g ai/ha): 15
- Pigweed plant response rating [2, 17]: 60
- Plant response rating, Pigweed [2, 18]: 75
- Plant response rating (scale 0 to 100), Velvetleaf ([3]; 8 g ai/ha): 0
- Velvetleaf plant response rating [3, 17]: 15
- Plant response rating, Velvetleaf [3, 18]: 25
- Plant response rating (scale 0 to 100), Barnyardgrass ([4]; 8 g ai/ha): 0
- Barnyardgrass plant response rating ([4]; 16 g ai/ha): 0
- Barnyardgrass plant response rating ([4]; 31 g ai/ha): 0
- Plant response rating, Barnyardgrass ([4]; 62 g ai/ha): 5
- Plant response rating (scale 0 to 100), Galium ([5]; 8 g ai/ha): 20
- Galium plant response rating [5]: 60
- Plant response rating, Galium ([5]; 62 g ai/ha): 70
- Plant response rating (scale 0 to 100), Blackgrass ([6]; 8 g ai/ha): 0
- Blackgrass plant response rating ([6]; 16 g ai/ha): 0
- Blackgrass plant response rating ([6]; 31 g ai/ha): 5
- Plant response rating, Blackgrass ([6]; 62 g ai/ha): 5
- Plant response rating (scale 0 to 100), Foxtail, Giant ([7]; 8 g ai/ha): 0
- Foxtail, Giant plant response rating ([7]; 16 g ai/ha): 5
- Foxtail, Giant plant response rating ([7]; 31 g ai/ha): 10
- Plant response rating, Foxtail, Giant ([7]; 62 g ai/ha): 35
- Plant response rating (scale 0 to 100), Wheat ([8]; 8 g ai/ha): 0
- Wheat plant response rating [8, 17]: 5
- Plant response rating, Wheat [8, 18]: 10
- Plant response rating (scale 0 to 100), Morningglory ([9]; 8 g ai/ha): 5
- Morningglory plant response rating [9, 17]: 15
- Plant response rating, Morningglory [9, 18]: 65
- Plant response rating (scale 0 to 100), Soybean (soybean (Glycine max); 8 g ai/ha): 5
- Soybean plant response rating (soybean (Glycine max); [17]): 25
- Plant response rating, Soybean (soybean (Glycine max); [18]): 30
- Plant response rating (scale 0 to 100), Crabgrass, Large ([10]; 8 g ai/ha): 0
- Crabgrass, Large plant response rating ([10]; 16 g ai/ha): 5
- Crabgrass, Large plant response rating ([10]; 31 g ai/ha): 5
- Plant response rating, Crabgrass, Large ([10]; 62 g ai/ha): 10
- Plant response rating (scale 0 to 100), Corn (corn (Zea mays); 8 g ai/ha): 0
- Corn plant response rating (corn (Zea mays); 16 g ai/ha): 5
- Corn plant response rating (corn (Zea mays); 31 g ai/ha): 5
- Plant response rating, Corn (corn (Zea mays); 62 g ai/ha): 5
- Plant response rating (scale 0 to 100), Oilseed Rape ([11]; 8 g ai/ha): 5
- Oilseed Rape plant response rating [11, 17]: 40
- Plant response rating, Oilseed Rape [11, 18]: 45
- Plant response rating (scale 0 to 100), Ryegrass, Italian ([12]; 8 g ai/ha): 0
- Ryegrass, Italian plant response rating [12, 17]: 0
- Plant response rating, Ryegrass, Italian [12, 18]: 0
- Plant response rating (scale 0 to 100), Lambsquarters ([13]; 8 g ai/ha): 10
- Lambsquarters plant response rating [13, 17]: 35
- Plant response rating, Lambsquarters [13, 18]: 40
- Plant response rating (scale 0 to 100), Waterhemp ([14]; 8 g ai/ha): 5
- Waterhemp plant response rating [14, 17]: 70
- Plant response rating, Waterhemp [14, 18]: 90
- Plant response rating (scale 0 to 100), Nutsedge, Yellow ([15]; 8 g ai/ha): 0
- Nutsedge, Yellow plant response rating [15, 17]: 5
- Plant response rating, Nutsedge, Yellow [15, 18]: 5
- Plant response rating (scale 0 to 100), Johnsongrass ([16]; 8 g ai/ha): 0
- Johnsongrass plant response rating [16]: 5
- Plant response rating, Johnsongrass ([16]; 62 g ai/ha): 10
